In patent US9982005B2, “Macrolides and methods of their preparation and use” (President and Fellows of Harvard College, priority 2013, dated 2018):
≈ marks a conversion by molar mass, not a printed value. Read-outs that look alike come from different tables or passages of the source.

Columns and labels:
Format in all cases: cell-based
EC107 E. coli ATCC25922 = assay: broth dilution MIC, E. coli EC107; conditions: Escherichia coli, read-out: MIC
Procedure, shortened: (§1)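 Antibacterial activity is reported as MIC by CLSI broth dilution. Panel strains were chosen with a focus on macrolide-resistance mechanisms. Azithromycin control included.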

[1] = test system: SA418 S. aureus ermA negative msrA positive; assay: broth dilution MIC, S. aureus SA418; conditions: Staphylococcus aureus
Excerpt: (§2) We have collected MIC data for a total of 50 novel macrolides that this platform has produced against over 21 unique strains of B. subtilis, E. coli, S. aureus, S. pneumoniae, and H. influenzae, including several multidrug-resistant strains, with a special focus on macrolide resistant mechanisms (vide supra). Azithromycin was included as a control macrolide. CLSI standard procedures for broth dilution MIC determination were used. […] These genotypes can be constitutive or inducible. The finding that C4-epi (unnatural) isomers of the “azaketolide” macrolide class have enhanced activities relative to C4 natural isomers is very exciting.

[2] = test system: Spn160 S. pneumoniae ermB unknown mefA positive; assay: broth dilution MIC, S. pneumoniae Spn160; conditions: Streptococcus pneumoniae; Spn160 S. pneumoniae ermB unknown mefA positive; read-out: MIC
Excerpt: as §2

[3] = test system: Spn1509 S. pneumoniae ermB positive mefA negative; assay: broth dilution MIC, S. pneumoniae Spn1509; conditions: Streptococcus pneumoniae
Excerpt: as §2

EC882 E. coli imp = assay: broth dilution MIC, E. coli EC882; conditions: Escherichia coli
Procedure, shortened: as §1

[4] = test system: Spn1427 S. pneumoniae ermB positive mefA negative; assay: broth dilution MIC, S. pneumoniae Spn1427; conditions: Streptococcus pneumoniae
Excerpt: as §2

EC878 E. coli tolC = assay: broth dilution MIC, E. coli EC878; conditions: Escherichia coli
Procedure, shortened: as §1

[5] = test system: SA183 S. aureus ermA positive msrA unknown; assay: broth dilution MIC, S. aureus SA183; conditions: Staphylococcus aureus
Excerpt: as §2

[6] = test system: Spn 106 S. pneumonia ATCC49619; assay: broth dilution MIC, S. pneumoniae Spn 106; conditions: Streptococcus pneumoniae; Spn 106 S. pneumonia ATCC49619; read-out: MIC
Excerpt: as §2

[7] = test system: SA557 S. aureus ermA unknown msrA positive; assay: broth dilution MIC, S. aureus SA557; conditions: Staphylococcus aureus
Excerpt: as §2

BS1725 B. subtilis ermC = assay: broth dilution MIC, B. subtilis BS1725; conditions: Bacillus subtilis
Procedure, shortened: as §1

[8] = test system: SA1708 S. aureus ermA positive msrA negative; assay: broth dilution MIC, S. aureus SA1708; conditions: Staphylococcus aureus
Excerpt: as §2

[9] = test system: SA1707 S. aureus ermA negative msrA positive; assay: broth dilution MIC, S. aureus SA1707; conditions: Staphylococcus aureus
Excerpt: as §2

[10] = test system: SA101 S. aureus ATCC29213; assay: broth dilution MIC, S. aureus SA101; conditions: Staphylococcus aureus
Procedure, shortened: as §1

[11] = test system: BS1723 B. subtilis BS168 WT wild type; assay: broth dilution MIC, B. subtilis BS1723; conditions: Bacillus subtilis, BS1723 B. subtilis BS168 WT wild type; read-out: MIC
Procedure, shortened: as §1

[12] = test system: Spn1537 S. pneumoniae ermB positive mefA positive; assay: broth dilution MIC, S. pneumoniae Spn1537; conditions: Streptococcus pneumoniae
Excerpt: as §2

[13] = test system: SA506 S. aureus ermA positive msrA unknown; assay: broth dilution MIC, S. aureus SA506; conditions: Staphylococcus aureus
Excerpt: as §2

[14] = test system: Spn1533 S. pneumoniae ermB positive mefA positive; assay: broth dilution MIC, S. pneumoniae Spn1533; conditions: Streptococcus pneumoniae
Excerpt: as §2

[15] = test system: HI175 H. influenzae ATCC49247; assay: broth dilution MIC, H. influenzae HI175; conditions: Haemophilus influenzae
Excerpt: as §2

S. pneumoniae strains = assay: MIC against S. pneumoniae strains (Tables M7, M8); conditions: Streptococcus pneumoniae
Excerpt: CLSI standard procedures for broth dilution MIC determination were used. […] These genotypes can be constitutive or inducible.

H. influenzae strains = assay: MIC against H. influenzae strains (Table M8); conditions: Haemophilus influenzae
Procedure, shortened: as §1

E. faecalis strains = assay: MIC against E. faecalis strains (Table M8); conditions: Enterococcus faecalis, E. faecalis 29212
E. coli strains = assay: MIC against E. coli strains (Table M7); conditions: Escherichia coli, ATCC25922, E. coli ATCC 25922
Procedure, shortened: as §1

E. coli (MC4100) = assay: MIC, E. coli MC4100; conditions: Escherichia coli, round 2, read-out: MIC
Excerpt: as §2

A. baumannii strains = assay: MIC against A. baumannii strains (Table M8); conditions: Acinetobacter baumannii, BAA747, A. baumannii BAA747-1
[16] = test system: S. aureus (Newman, clinical isolate); assay: MIC, S. aureus Newman; conditions: Staphylococcus aureus, S. aureus (Neuman, clinical isolate), round 2
Excerpt: as §2

K. pneumoniae strains = assay: MIC against K. pneumoniae strains (Table M8); conditions: Klebsiella pneumoniae, K. pneumoniae 10031
S. aureus strains = assay: MIC against S. aureus strains (Table M7); conditions: Staphylococcus aureus
Procedure, shortened: as §1

[17] = Spn1509 S. pneumoniae ermB positive mefA negative, read-out: MIC
[18] = SA557 S. aureus ermA unknown msrA positive, read-out: MIC
[19] = ATCC29213, SA101 S. aureus ATCC29213, read-out: MIC

Row | SMILES | MIC (EC107 E. coli ATCC25922) [µg/mL] | MIC [1] [µg/mL] | MIC [2] [µg/mL] | MIC (EC882 E. coli imp) [µg/mL] | MIC [4] [µg/mL] | MIC (EC878 E. coli tolC) [µg/mL] | MIC [5] [µg/mL] | MIC [6] [µg/mL] | MIC (BS1725 B. subtilis ermC; BS1725 B. subtilis ermC (+ery)) [µg/mL] | MIC [8] [µg/mL] | MIC [9] [µg/mL] | MIC [11] [µg/mL] | MIC [12] [µg/mL] | MIC [13] [µg/mL] | MIC [14] [µg/mL] | MIC [3, 17] [µg/mL] | MIC [15] [µg/mL] | MIC [7, 18] [µg/mL] | MIC [10, 19] [µg/mL] | also measured
1 | CCC[C@@H]1C[C@@H](C(=O)N[C@@H]([C@H]2O[C@H](SC)[C@H](O)[C@@H](O)[C@H]2O)[C@H](C)Cl)N(C)C1 [Clindamycin, clindamycin, reference compound] | > 32 | 0.0625 to 0.125 (≈ 0.147 to 0.294 µM) | 0.0156 to 0.0312 (≈ 0.0367 to 0.0734 µM) | 2 (≈ 4.71 µM) | > 32 | 2 (≈ 4.71 µM) | > 32 | 0.0312 (≈ 0.0734 µM) | 4 (≈ 9.41 µM) | 0.25 (≈ 0.588 µM) | 0.0625 to 0.125 (≈ 0.147 to 0.294 µM) | 1 (≈ 2.35 µM) | > 32 | > 32 | > 32 |  |  |  |  | MIC [3]: 16 to 32 µg/mL (≈ 37.6 to 75.3 µM); MIC [7]: 0.125 µg/mL (≈ 0.294 µM); MIC (BS1725 B. subtilis ermC; BS1725 B. subtilis ermC (−ery)): 2 µg/mL (≈ 4.71 µM); MIC ([10]; ATCC29213): 0.125 µg/mL (≈ 0.294 µM)
2 | CC[C@H]1OC(=O)C(C)(F)C(=O)[C@@H](C)[C@@H](O[C@@H]2OC(C)CC(N(C)C)C2O)[C@](C)(OC)C[C@@H](C)CN[C@H](C)[C@H]2N(CCCCn3cc(-c4nccs4)nn3)C(=O)O[C@]12C (some centres unmarked) [FSM-20721] | > 32 | 16 (≈ 19.1 µM) | 0.5 to 1 (≈ 0.597 to 1.19 µM) | 0.25 (≈ 0.298 µM) | > 32 | 1 (≈ 1.19 µM) | > 32 | 0.125 to 0.25 (≈ 0.149 to 0.298 µM) | > 32 | 16 (≈ 19.1 µM) | 16 (≈ 19.1 µM) | 8 (≈ 9.55 µM) | > 32 | > 32 | > 32 | 8 to 16 (≈ 9.55 to 19.1 µM) | 8 to 32 (≈ 9.55 to 38.2 µM) | 16 (≈ 19.1 µM) | 8 (≈ 9.55 µM) | 
3 | C=CC[C@H]1C(=O)O[C@H](CC)[C@@]2(C)OC(=O)N(CCCCn3cc(-c4cccc(N)c4)nn3)[C@@H]2[C@@H](C)NC[C@H](C)C[C@@](C)(OC)[C@H](O[C@@H]2OC(C)CC(N(C)C)C2O)[C@@H](C)C1=O (some centres unmarked) [FSM-56156] |  |  |  |  |  |  |  |  |  |  |  |  |  |  |  |  |  |  |  | MIC (S. pneumoniae strains; S. pneumoniae 160, read-out: MIC S. pneumonae (160)): 0.25 µg/mL (≈ 0.293 µM); MIC (S. pneumoniae strains; S. pneumoniae 1509, read-out: MIC S. pneumoniae (1509)): 8 µg/mL (≈ 9.37 µM); MIC (S. pneumoniae strains; S. pneumoniae 1533, read-out: MIC S. pneumoniae (1533)): > 32 µg/mL; MIC (S. pneumoniae strains; S. pneumoniae 1537, read-out: MIC S. pneumoniae (1537)): > 32 µg/mL; MIC (S. pneumoniae strains; S. pneumoniae 49619, read-out: MIC S. pneumoniae (49619)): 1 µg/mL (≈ 1.17 µM); MIC (H. influenzae strains; H. influenzae 49247, read-out: MIC H. influenzae (49247)): 2 µg/mL (≈ 2.34 µM); MIC (H. influenzae strains; H. influenzae 49766, read-out: MIC H. influenzae (49766)): 8 µg/mL (≈ 9.37 µM); MIC (E. faecalis strains): 1 µg/mL (≈ 1.17 µM); MIC (E. coli strains): 16 µg/mL (≈ 18.7 µM); MIC (E. coli (MC4100)): 4 µg/mL (≈ 4.68 µM); MIC (A. baumannii strains): 32 µg/mL (≈ 37.5 µM); MIC [16]: 2 µg/mL (≈ 2.34 µM); MIC (K. pneumoniae strains): 4 µg/mL (≈ 4.68 µM); MIC (S. aureus strains; ATCC29213, S. aureus ATCC 29213, read-out: MIC S. aureus (ATCC 29213)): 4 µg/mL (≈ 4.68 µM); MIC (S. aureus strains; S. aureus 506, read-out: MIC S. aureus (506)): > 32 µg/mL; MIC (S. aureus strains; S. aureus 1708, read-out: MIC S. aureus (1708)): 4 µg/mL (≈ 4.68 µM); MIC (S. aureus strains; USA300, S. aureus USA300, read-out: MIC S. aureus (USA300)): 8 µg/mL (≈ 9.37 µM)
4 | CC[C@H]1OC(=O)C(C)(F)C(=O)[C@@H](C)[C@@H](O[C@@H]2OC(C)CC(N(C)C)C2O)[C@](C)(OC)C[C@@H](C)CN[C@H](C)[C@H]2N(CCCCn3cc(-c4cccc(N)n4)nn3)C(=O)O[C@]12C (some centres unmarked) [FSM-20718] | > 32 | 16 (≈ 18.9 µM) | 0.25 to 1 (≈ 0.295 to 1.18 µM) | 0.125 (≈ 0.148 µM) | 4 to 32 (≈ 4.72 to 37.8 µM) | 1 (≈ 1.18 µM) | > 32 | 0.0156 to 0.25 (≈ 0.0184 to 0.295 µM) | > 32 | 16 (≈ 18.9 µM) | 32 (≈ 37.8 µM) | 8 (≈ 9.44 µM) | > 32 | > 32 | > 32 | 0.5 to 4 (≈ 0.59 to 4.72 µM) | 2 to 16 (≈ 2.36 to 18.9 µM) | 8 (≈ 9.44 µM) | 8 (≈ 9.44 µM) | 
